Patent US20200377505A1, “BENZIMIDAZOLES AND AZA-BENZIMIDAZOLES, AND METHODS OF USE THEREOF” (Goldfinch Bio., Inc., priority 2017, published 2020)

Legend:
human TRPC5 = target: T1, human TRPC5 (Homo sapiens, UniProt Q9UL62); assay: TRPC5 fluorescence-based assay (Ca2+ flux assay in FLIPR format), cells overexpressing TRPC5; type: cell-based; settings: 5 μM of test compound, following Carbachol stimulation
T1 construct: expressed in transfected cells; host or cells: HEK 293
T1 sequence (Q9UL62 1-973): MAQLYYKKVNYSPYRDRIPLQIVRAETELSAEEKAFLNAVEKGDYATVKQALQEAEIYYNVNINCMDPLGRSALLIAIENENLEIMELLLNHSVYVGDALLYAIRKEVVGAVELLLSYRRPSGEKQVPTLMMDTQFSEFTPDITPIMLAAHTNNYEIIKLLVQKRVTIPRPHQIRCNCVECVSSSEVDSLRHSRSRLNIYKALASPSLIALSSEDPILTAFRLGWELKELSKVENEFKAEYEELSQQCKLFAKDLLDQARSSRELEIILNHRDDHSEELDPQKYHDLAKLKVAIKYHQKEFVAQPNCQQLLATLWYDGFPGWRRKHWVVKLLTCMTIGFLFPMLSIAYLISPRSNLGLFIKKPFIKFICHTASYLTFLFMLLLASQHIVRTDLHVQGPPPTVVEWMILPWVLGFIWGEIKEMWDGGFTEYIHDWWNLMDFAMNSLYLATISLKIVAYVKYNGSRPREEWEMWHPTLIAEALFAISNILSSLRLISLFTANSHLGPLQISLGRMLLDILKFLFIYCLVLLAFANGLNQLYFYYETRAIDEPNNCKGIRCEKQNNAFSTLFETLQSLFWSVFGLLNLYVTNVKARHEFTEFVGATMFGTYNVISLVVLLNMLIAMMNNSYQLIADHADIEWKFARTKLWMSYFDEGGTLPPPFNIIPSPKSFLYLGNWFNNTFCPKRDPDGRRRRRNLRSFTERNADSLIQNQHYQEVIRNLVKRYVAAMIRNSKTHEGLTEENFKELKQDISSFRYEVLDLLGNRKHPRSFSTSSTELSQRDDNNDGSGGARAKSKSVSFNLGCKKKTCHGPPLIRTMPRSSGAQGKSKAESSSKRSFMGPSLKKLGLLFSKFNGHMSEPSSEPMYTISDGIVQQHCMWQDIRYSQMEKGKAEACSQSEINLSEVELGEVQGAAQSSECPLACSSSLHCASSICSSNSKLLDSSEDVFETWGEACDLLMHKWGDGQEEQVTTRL

human TRPC6 = target: T2, human TRPC6 (Homo sapiens, UniProt Q9Y210); assay: TRPC6 fluorescence-based assay (Ca2+ flux assay in FLIPR format), cells overexpressing TRPC6; type: cell-based; settings: 5 μM of test compound, following Carbachol stimulation
T2 construct: expressed in transfected cells; host or cells: HEK 293
T2 sequence (Q9Y210 1-931): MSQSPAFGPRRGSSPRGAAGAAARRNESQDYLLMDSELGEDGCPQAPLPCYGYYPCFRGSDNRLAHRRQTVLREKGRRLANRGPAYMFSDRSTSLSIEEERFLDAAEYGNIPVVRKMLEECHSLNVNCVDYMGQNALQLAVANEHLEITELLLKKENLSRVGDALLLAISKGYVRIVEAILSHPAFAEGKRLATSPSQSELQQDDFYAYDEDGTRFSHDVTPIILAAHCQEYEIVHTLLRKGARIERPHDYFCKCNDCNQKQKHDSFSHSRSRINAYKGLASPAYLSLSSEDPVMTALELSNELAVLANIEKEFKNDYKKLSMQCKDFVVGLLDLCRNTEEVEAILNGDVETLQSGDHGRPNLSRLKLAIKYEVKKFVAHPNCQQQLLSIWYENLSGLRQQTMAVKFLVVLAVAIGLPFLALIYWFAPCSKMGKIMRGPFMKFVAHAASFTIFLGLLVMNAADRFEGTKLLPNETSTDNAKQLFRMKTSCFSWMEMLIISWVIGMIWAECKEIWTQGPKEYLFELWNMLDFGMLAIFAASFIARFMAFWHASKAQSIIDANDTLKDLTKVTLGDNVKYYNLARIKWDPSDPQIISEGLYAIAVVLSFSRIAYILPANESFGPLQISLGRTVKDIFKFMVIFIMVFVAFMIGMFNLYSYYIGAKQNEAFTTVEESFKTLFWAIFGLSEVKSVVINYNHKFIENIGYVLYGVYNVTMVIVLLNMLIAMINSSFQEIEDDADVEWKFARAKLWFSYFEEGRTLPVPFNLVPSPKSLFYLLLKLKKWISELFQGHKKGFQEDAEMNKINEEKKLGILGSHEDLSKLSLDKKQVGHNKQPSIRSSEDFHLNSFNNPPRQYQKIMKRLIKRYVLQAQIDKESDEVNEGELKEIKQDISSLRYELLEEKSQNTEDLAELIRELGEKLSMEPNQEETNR

Structure (SMILES)	inhibition at 5 µM (human TRPC5) [%]	inhibition at 5 µM (human TRPC6) [%]
CCn1c(Cc2ccc(OC)c(OC)c2)nc2ccccc21	59	94
COCc1ccccc1Cn1cnc2ccccc21	61.3	83.5
CCCCc1nc2ccccc2n1CC(=O)N1CCCC1c1nc2ccccc2s1 (stereo not drawn)	46.3	-0.71
CCCCCn1c(NCc2ccc(N(C)C)cc2)nc2ccccc21	62.7	81.9
CCCCn1c(NCc2cccs2)nc2ccccc21 [drawing 80]	66.1	81.3
CCn1c(NCc2ccc(Br)cc2)nc2ccccc21	71.6	77.3
COc1ccc(-n2c(SCC(=O)Nc3cccc(S(=O)(=O)N4CCOCC4)c3)nc3ccccc32)cc1	69.6	6.92
CCCCn1c(NCc2nc3ccccc3n2C)nc2ccccc21	59.5	30.4
COc1ccc(CNc2nc3ccccc3n2Cc2ccc(Cl)cc2)cc1OC	53.4	31.3
Fc1cccc(Cl)c1Cn1c(-c2ccco2)nc2ccccc21	47.9	61.7
CCCn1c(-c2ccc(Br)cc2)nc2ccccc21	61.4	82.8
Nc1nc2ccccc2n1CCOc1ccccc1Cl	49.9	53.7
c1ccc(Cc2nc3ccccc3n2CCOc2ccccc2)cc1	36.7	17.7
CC(C)n1c(Nc2ccccc2)nc2ccccc21	35.7	14.5
Cc1cc(NC(=O)Cn2c(NCc3ccccc3)nc3ccccc32)no1	48	22.8
Cn1c(NCc2c[nH]c3ccccc23)nc2ccccc21	66.8	27.7
CCN(CC)CCn1c(NCc2ccc(OC)cc2OC)nc2ccccc21	60.9	43.5
C#CCn1c(Cc2ccc(OC)c(OC)c2)nc2ccccc21	66	91.5
Cc1ccccc1Cn1c(C2CC2)nc2ccccc21	35.5	45.3
COc1ccc(/C=N/c2nc3ccccc3n2Cc2ccc(C)cc2)cc1	53.4	41.5
CCn1c(NCc2ccccc2O)nc2ccccc21	50	-8.69

Structure (SMILES)	inhibition at 5 µM (human TRPC5) [%]	inhibition at 5 µM (human TRPC6) [%]
COCCn1c(SCC(=O)Nc2cccc3ncccc23)nc2ccccc21	59.1	83.6
Cc1cccc(OCCn2c(Cc3ccccc3)nc3ccccc32)c1	56.4	52.9
COc1ccc(NCc2nc3ccccc3n2CCOc2ccccc2C)cc1	44.9	58.5
COc1ccccc1NC(=O)Cn1c(C)nc2ccccc21	72.7	84.1
CCSc1nc2ccccc2n1Cc1cccc([N+](=O)[O-])c1	32.2	50
Cn1c(NCc2cccc3ccccc23)nc2ccccc21	45.5	27.5
CCOc1ccccc1CNc1nc2ccccc2n1C	43.9	19.3
Nc1nc2ccccc2n1Cc1ccc(Cl)c(Cl)c1	52.4	84.3
CCOc1ccc(NCc2nc3ccccc3n2CCOc2ccccc2C)cc1	37.5	66.1
CCN(CC)CCn1c(NCc2ccccc2OC)nc2ccccc21	63.4	21.9
Brc1cccc(CNc2nc3ccccc3n2CCN2CCCCC2)c1	55	51
CC(C)(C)C(=O)NCCc1nc2ccccc2n1Cc1ccc(Cl)cc1	38.9	-7.07
CC(C)(C)NC(=O)Cn1c(NCc2ccccc2)nc2ccccc21	51	3.97
COc1ccc(Cc2nc3ccccc3n2C(C)c2ccccc2)cc1 (stereo not drawn)	51	45
CCN(CC)c1ccc(CNc2nc3ccccc3n2CCN2CCCCC2)cc1	61.2	65.7
CC(NCc1nc2ccccc2n1C)C12CC3CC(CC(C3)C1)C2 (stereo not drawn)	55.2	69.7
COc1ccc(/C=N/c2nc3ccccc3n2Cc2ccccc2)cc1OC	74.3	90.5
C=C(C)Cn1c(-c2ccc(N(C)C)cc2)nc2ccccc21	45	45
COc1ccc(CCN2CCC(Nc3nc4ccccc4n3CCc3ccc(OC)cc3)CC2)cc1	63.3	68.9
Nc1ccc(-c2nc3ccccc3n2CCCOc2ccccc2)cc1	38.6	27.3
CCn1c(NCc2cccc(Br)c2)nc2ccccc21	39.9	54.1

Structure (SMILES)	inhibition at 5 µM (human TRPC5) [%]	inhibition at 5 µM (human TRPC6) [%]
CCn1c(NCc2cc(C)ccc2O)nc2ccccc21	51.8	3.16
CCCn1c(NCc2ccc(N(CC)CC)cc2)nc2ccccc21	64.9	74.7
Clc1ccc(Cn2cnc3ccccc32)c(Cl)c1	63.5	85.5
CCCn1c(NCc2ccccc2Cl)nc2ccccc21	46	29.8
O=C(Cn1c(NCCCO)nc2ccccc21)C12CC3CC(CC(C3)C1)C2	58.2	28.4
CCCn1c(COc2ccccc2)nc2ccccc21	30.2	22.8
COc1ccccc1CNc1nc2ccccc2n1C(C)C	57.9	53.9
Cn1c(CC(O)c2ccccc2)nc2ccccc21 (stereo not drawn)	42.3	-9.99
COc1ccc(OCc2nc3ccccc3n2CCc2ccccc2)cc1	38.3	52
COc1ccc(CNc2nc3ccccc3n2C)c(OC)c1	41.3	19.4
CCCn1c(NCc2ccco2)nc2ccccc21	40.7	14.9
CCCn1c(NCc2c[nH]c3ccccc23)nc2ccccc21	70.6	54.7
Cc1ccc(Cn2c(CN3CCC(CN)C3)nc3ccccc32)cc1 (stereo not drawn)	51.8	51
Cc1ccc(NC(=O)Cn2c(C)nc3ccccc32)cc1	32.1	81.8
CCN(CC)CCn1c(NCc2cccc(Br)c2)nc2ccccc21	62.9	69.8
Cn1c(=O)c2c(ncn2CC(=O)OCCCC(c2ccc(F)cc2)c2ccc(F)cc2)n(C)c1=O	60	60.7
OCCNc1nc2ccccc2n1CCOc1ccccc1	40.7	8.36
CCN(CC)CCn1c(NCc2ccc(Cl)cc2)nc2ccccc21	62	57.1
Nc1nc2ccccc2n1Cc1ccccc1F	48.4	34.8
CCOc1ccccc1Nc1nc2ccccc2n1C(C)C	45.1	40.7
CCCCn1c(NCc2ccc(N(CC)CC)cc2)nc2ccccc21	28.7	30.3
